Assay results: patent US20020094524A1, “Compositions and methods for inhibiting HIV infection” (priority 2000, published 2002)

How the values were obtained:
[1] = test system: MLV Env-pseudotyped HIV; test: Pseudotype reporter virus entry assay, MLV Env; assay type: cell-based, murine leukemia virus
Procedure: Pseudotype reporter virus entry assay: Recombinant luciferase-encoding HIV virions pseudotyped with Env from the M-tropic ADA (CCR5-dependent) and amphitropic murine leukemia virus (MLV) (CCR5-independent) were used to study HIV infection of MDM incubated with or without CP-96,345 or R-113281. The Env-deleted luciferase reporter plasmid PNL-Luc-E-R+ (kindly provided by N. Landau) was cotransfected into 293T cells along with plasmids encoding the ADA or MLV Env genes as previously described (31). Supernatants were collected 48 h later, assayed for p24^Gag antigen content, and frozen at −80° C. MDM (2.5×10^5 cells/well, in 48-well plates) were incubated overnight with or without CP-96,345 or R-113281 and then infected using 20 ng of p24^Gag antigen equivalent of each pseudotype HIV per well, in the presence of polybrene (7.5 μg/ml). At 72 h postinfection, the cells were lysed in 150 μl of 0.5% Triton-X-100 in PBS. Lysate (50 μl) was mixed with an equal volume of luciferase substrate (Promega, […].) and luciferase activity was determined in a microtiter plate luminometer (Dynex Technologies, Chantilly, Va.). The results were expressed as relative light units (RLU) in CP-96,345-treated or R-113281-treated and infected MDM as a percentage of that in untreated and infected MDM.

[2] = test system: HIV Bal strain; test: HIV-induced syncytia formation in MDM; assay type: cell-based; settings: 10^−7M; 12 days after infection (FIG. 2)
Procedure: Syncytia formation: To study the effect of neuropeptide antagonists on HIV-induced syncytia formation in MDM, 7-day-cultured macrophages were incubated in the presence or absence of CP-96,345 (10^−7M) for 2 h and then infected with HIV Bal strain. MDM which were neither incubated with CP-96,345 nor infected with HIV were used as a cell culture control. The morphology of HIV-induced syncytia formation was observed and photographed by a light microscopy (×400) 12 days after HIV infection.

[3] = test system: SP mRNA; test: SP mRNA expression in MDM (real-time RT-PCR); assay type: cell-based, human; settings: 4 hours; indicated concentration (FIG. 17)
Procedure: FIG. 17. A graph showing the effect of CP-96,345 on SP mRNA expression in MDM. The MDM were incubated with (+) or without (−) the NK-1R antagonist at the indicated concentration for 4 hours. The SP mRNA levels were determined by a real-time RT-PCR. The SP mRNA levels in the CP-96,345 treated MDM are expressed as a percentage of that in untreated MDM which are defined as 100%.
The effect of CP-96,345 on SP mRNA expression in MDM was also determined. The MDM were incubated with (+) or without (−) the NK-1R antagonist at the indicated concentration for 4 hours. The SP mRNA levels were determined by a real-time RT-PCR.

[4] = test system: TNF-α; test: LPS-stimulated TNF-α production in MDM (ELISA); assay type: cell-based, human; settings: 10^−9 to 10^−7M; LPS 1 ng/ml; 24 h; concentration-dependent (FIG. 11)
Procedure: (§1) In order to determine the role of CP-96,345 in the regulation of cytokine secretion, 7-day-cultured MDM were incubated with or without CP-96,345 (10^−9 to 10^−7M) and/or LPS (1 ng/ml) for 24 h. The culture supernatants were collected to determine TNF-α and IL-6 levels by ELISA. The ELISA kits were purchased from Endogen, Inc. (Woburn, Mass.).

[5] = test system: HIV gag mRNA; test: HIV gag mRNA by RT-PCR / real time RT-PCR in infected MDM; assay type: cell-based
Procedure: HIV Infection: After 2 h incubation with or without the reagents described above, the cells were infected with equal amounts of cell-free HIV based on p24 antigen content (20 ng/10^6 cells) overnight, and then washed to remove unbound virus. Fresh media containing SP and/or CP-96,345 or anti-SP antibody were added to the MDM as described above. The culture media and the reagents were replaced twice weekly. The culture supernatants were harvested for HIV reverse transcriptase (RT) activity determinations. After HIV infection, the MDM were incubated for 8 to 12 days. At the termination of the experiments, cellular RNA was extracted for assessment of HIV gag gene expression using RT-PCR or real time RT-PCR assays.
Total RNA was isolated from human peripheral blood MDM (10^6 cells) using Tri-Reagent (Molecular Research Center, Cincinnati, Ohio) as we previously reported (16).
Reverse transcription: Total RNA (1 μg) was reverse transcribed using Reverse Transcription System (Promega, Madison, Wis.) with the specific primers (antisense) for HIV gag (5′-[…]-[…]-3′; SEQ ID NO: 1) (27) or CCR5 (5′-[…]-3′; SEQ ID NO: 2) (32) for 1 h at 42° C. RT reactions was terminated by incubating the reaction mixture at 99° C. for 5 min and then kept at 4° C. The resulting cDNA was used as a template for PCR amplification or real time PCR quantification. […]

[6] = test system: IL-6; test: IL-6 production in LPS-treated MDM (ELISA); assay type: cell-based, human; settings: 10^−9 to 10^−7M; LPS 1 ng/ml; 24 h (FIG. 11)
Procedure: as §1

SMILES	MLV-Env pseudotyped HIV infection of MDM (luciferase activity) ([1]; R-113281 10^−7 and 10^−6 overnight (FIG. 13))	HIV-induced giant syncytia formation in MDM [2]	MLV Env-pseudotyped HIV infection of MDM (luciferase activity) ([1]; CP-96,345 10^−8 and 10^−7M overnight (FIG. 10))	SP mRNA expression in MDM [3]	LPS-stimulated TNF-α production in MDM [4]	HIV gag mRNA expression (RT-PCR) ([5]; 10^−11 to 10^−7 M, 12 days after infection, concentration-dependent (FIG. 3 top panel))	HIV gag gene mRNA expression (real time RT-PCR copy numbers) ([5]; all three concentrations tested, 12 days after infection (FIG. 3))	IL-6 production in MDM [6]
COc1cc(C(=O)N2CCO[C@](CCN3CCC4(CC3)c3ccccc3C[S@+]4[O-])(c3ccc(Cl)c(Cl)c3)C2)cc(OC)c1OC.Cl [R-113281]	failed to block							
COc1ccccc1CN[C@H]1C2CCN(CC2)[C@H]1C(c1ccccc1)c1ccccc1 [CP-96,345, 2S, 3S)-cis-2-(diphenylmethyl)-N-[(2-methoxyphenyl)-methyl]-1-azabicyclo[[2.2.2]octan-3-amine]		failed to develop the giant syncytia	failed to block	significantly inhibited	attenuated	potently inhibited	significantly suppress	not affected
